Experimental data published in US11034742B2, “Peptides with antibiotic potential against Mycobacterium tuberculosis” (LINNANE PHARMA AB, priority 2017, dated 2021).
Converted amounts (≈) assume the structure as drawn. Positions of bridges follow the written chain, without caps; N, C: chain ends. Residues, ends and D or L forms follow the SMILES beside them.

Tested on: M. tuberculosis

Compound	mean concentration inhibiting 99% of bacterial growth [µM]	MIC (mg/L)	MIC (μM) [µM]
CC[C@H](C)[C@@H]1NC(=O)[C@H](C)NC(=O)[C@@H]2CSSC[C@H](NC(=O)CNC(=O)[C@H](Cc3ccccc3)NC(=O)CN)C(=O)N[C@@H](CC(N)=O)C(=O)NCC(=O)N3CCC[C@H]3C(=O)N[C@@H](Cc3c[nH]c4ccccc34)C(=O)N[C@@H](CO)C(=O)N[C@@H](CCC(=O)O)C(=O)N[C@@H](CC(=O)O)C(=O)N[C@@H](CC(=O)O)C(=O)N[C@@H]([C@@H](C)CC)C(=O)N[C@@H](CCC(N)=O)C(=O)N[C@H]3CSSC[C@H](NC(=O)[C@H](C(C)C)NC(=O)[C@H](Cc4ccccc4)NC(=O)CNC(=O)CNC1=O)C(=O)N[C@@H](CCCCN)C(=O)N[C@H](C(=O)N[C@@H](Cc1ccc(O)cc1)C(=O)O)CSSC[C@H](NC(=O)[C@H](Cc1c[nH]cn1)NC(=O)[C@H](CC(N)=O)NC(=O)[C@H](Cc1c[nH]cn1)NC3=O)C(=O)N[C@@H](CCCCN)C(=O)N[C@@H](CO)C(=O)N[C@@H]([C@@H](C)CC)C(=O)N[C@@H](CCCCN)C(=O)NCC(=O)N[C@@H](Cc1ccc(O)cc1)C(=O)N[C@@H](CCCCN)C(=O)NCC(=O)NCC(=O)N[C@@H](Cc1ccc(O)cc1)C(=O)N2 [SEQ ID NO: 4] (H-GFGCNGPWSEDDIQCHNHCKSIKGYKGGYCAIGGFVCKCY-OH; disulfide 4-30, 15-37, 19-39 (inferred); N-terminus and C-terminus assumed)	6.3	–	–
CC[C@H](C)[C@@H]1NC(=O)[C@H](CO)NC(=O)[C@H](CCCCN)NC(=O)[C@@H]2CSSC[C@@H](C(=O)N[C@@H](Cc3ccc(O)cc3)C(=O)O)NC(=O)[C@H](CCCCN)NC(=O)[C@@H]3CSSC[C@H](NC(=O)[C@H](CCC(N)=O)NC(=O)[C@H]([C@@H](C)CC)NC(=O)[C@H](CC(=O)O)NC(=O)[C@H](CC(=O)O)NC(=O)[C@H](CCC(=O)O)NC(=O)[C@H](CO)NC(=O)[C@H](Cc4c[nH]c5ccccc45)NC(=O)[C@@H]4CCCN4C(=O)CNC(=O)[C@H](CC(N)=O)NC(=O)[C@@H](NC(=O)CNC(=O)[C@H](Cc4ccccc4)NC(=O)CN)CSSC[C@H](NC(=O)[C@H](Cc4ccc(O)cc4)NC(=O)CNC(=O)CNC(=O)[C@H](CCCCN)NC(=O)[C@H](Cc4ccc(O)cc4)NC(=O)CNC(=O)[C@H](CCCCN)NC1=O)C(=O)N[C@@H](C)C(=O)N[C@@H](CCCNC(=N)N)C(=O)NCC(=O)NCC(=O)N[C@@H](Cc1ccccc1)C(=O)N[C@@H](C(C)C)C(=O)N3)C(=O)N[C@@H](Cc1c[nH]cn1)C(=O)N[C@@H](CC(N)=O)C(=O)N[C@@H](Cc1c[nH]cn1)C(=O)N2 [SEQ ID NO: 3] (H-GFGCNGPWSEDDIQCHNHCKSIKGYKGGYCARGGFVCKCY-OH; disulfide 4-30, 15-37, 19-39 (inferred); N-terminus and C-terminus assumed)	6.3	27.5 (≈ 6.27 µM)	6.8 (≈ 29.8 µg/mL)
